Results: US9451764B2, “Composition comprising insecticide-wax particles” (priority 2010, dated 2016)

Test system: Blattella germanica
Assay: Activity of different insecticides on timber, cement and tile
Assay type: in vivo
Excerpt: Example e) illustrates that other active ingredients as well can be used successfully in the context of this invention (as a diluted suspension concentration, i.e. as a spraying liquor of the invention). In addition to deltamethrin, both bendiocarb and beta-cyfluthrin and cyfluthrin can be encapsulated.

[1] = 4 mg/m^2 (reduced concentration), Cement
[2] = 4 mg/m^2 (reduced concentration), Tile
[3] = 4 mg/m^2 (reduced concentration), Timber
[4] = 12.5 mg/m^2 (standard concentration), Cement, 30-minute exposure
[5] = 12.5 mg/m^2 (standard concentration), Tile, 30-minute exposure
[6] = 12.5 mg/m^2 (standard concentration), Timber, 30-minute exposure
[7] = 8 mg/m^2 (reduced concentration), Cement
[8] = 8 mg/m^2 (reduced concentration), Tile
[9] = 8 mg/m^2 (reduced concentration), Timber
[10] = 25 mg/m^2 (standard concentration), Cement, 30-minute exposure
[11] = 25 mg/m^2 (standard concentration), Tile, 30-minute exposure
[12] = 25 mg/m^2 (standard concentration), Timber, 30-minute exposure
[13] = 50 mg/m^2 (reduced concentration), Cement
[14] = 50 mg/m^2 (reduced concentration), Tile
[15] = 100 mg/m^2 (standard concentration), Cement, 30-minute exposure
[16] = 100 mg/m^2 (standard concentration), Tile, 30-minute exposure

CC1(C)C(C=C(Cl)Cl)C1C(=O)OC(C#N)c1ccc(F)c(Oc2ccccc2)c1 (stereo not drawn) [Beta-cyfluthrin, beta-cyfluthrin]
Knockdown after 1 h [1]: 100%
Mortality after 24 h [1]: 100%
Knockdown after 1 h [2]: 100%
Mortality after 24 h [2]: 100%
Knockdown after 1 h [3]: 100%
Mortality after 24 h [3]: 100%
Knockdown after 1 h [4]: 100%
Mortality after 24 h [4]: 100%
Knockdown after 1 h [5]: 100%
Mortality after 24 h [5]: 100%
Knockdown after 1 h [6]: 100%
Mortality after 24 h [6]: 100%

CC1(C)[C@H](C(=O)O[C@H](C#N)c2cccc(Oc3ccccc3)c2)[C@@H]1C=C(Br)Br [Deltamethrin, deltamethrin]
Knockdown after 1 h [1]: 100%
Mortality after 24 h [1]: 100%
Knockdown after 1 h [2]: 100%
Mortality after 24 h [2]: 100%
Knockdown after 1 h [3]: 100%
Knockdown after 1 h [4]: 100%
Mortality after 24 h [4]: 100%
Knockdown after 1 h [5]: 100%
Mortality after 24 h [5]: 100%
Knockdown after 1 h [6]: 100%
mortality at 4 mg/m2 (Blattella germanica, 24 h, 4 mg/m^2 (reduced concentration), Timber, read-out: Mortality after 24 h): 100%
mortality at 12.5 mg/m2 (Blattella germanica, 12.5 mg/m^2 (standard concentration), Timber, 30-minute exposure, read-out: Mortality after 24 h): 100%

CC1(C)C(C=C(Cl)Cl)C1C(=O)OC(C#N)c1ccc(F)c(Oc2ccccc2)c1 (stereo not drawn) [cyfluthrin]
Knockdown after 1 h [7]: 100%
Mortality after 24 h [7]: 100%
Knockdown after 1 h [8]: 100%
Mortality after 24 h [8]: 100%
Knockdown after 1 h [9]: 100%
Mortality after 24 h [9]: 100%
Knockdown after 1 h [10]: 100%
Mortality after 24 h [10]: 100%
Knockdown after 1 h [11]: 100%
Mortality after 24 h [11]: 100%
Knockdown after 1 h [12]: 100%
Mortality after 24 h [12]: 100%

CNC(=O)Oc1cccc2c1OC(C)(C)O2 [Bendiocarb, bendiocarb]
Knockdown after 1 h [13]: 90%
Mortality after 24 h [13]: 100%
Knockdown after 1 h [14]: 100%
Mortality after 24 h [14]: 100%
Knockdown after 1 h (50 mg/m^2 (reduced concentration), Timber): 50%
Knockdown after 1 h [15]: 100%
Mortality after 24 h [15]: 100%
Knockdown after 1 h [16]: 100%
Mortality after 24 h [16]: 100%
Knockdown after 1 h (100 mg/m^2 (standard concentration), Timber, 30-minute exposure): 60%
mortality at 50 mg/m2 (Blattella germanica, 24 h, read-out: Mortality after 24 h): 100%
mortality at 100 mg/m2 (Blattella germanica, read-out: Mortality after 24 h): 100%
